Tests used:
[1] = target: T1, Thymidylate synthase (Homo sapiens, UniProt P04818); assay: Ability to inhibit thymidylate synthase derived from human leukemia K562 cells; format: cell-based
[2] = target: T1, Thymidylate synthase; assay: Inhibitory activity against human thymidylate synthase derived either from HeLa or KB cells; format: cell-based
[3] = target: T2, Thymidylate synthase (Lactobacillus casei, UniProt P00469); assay: Ability to inhibit thymidylate synthase derived from Lactobacillus casei; set-up: species or system Lacticaseibacillus casei
T2 sequence (P00469 whole entry): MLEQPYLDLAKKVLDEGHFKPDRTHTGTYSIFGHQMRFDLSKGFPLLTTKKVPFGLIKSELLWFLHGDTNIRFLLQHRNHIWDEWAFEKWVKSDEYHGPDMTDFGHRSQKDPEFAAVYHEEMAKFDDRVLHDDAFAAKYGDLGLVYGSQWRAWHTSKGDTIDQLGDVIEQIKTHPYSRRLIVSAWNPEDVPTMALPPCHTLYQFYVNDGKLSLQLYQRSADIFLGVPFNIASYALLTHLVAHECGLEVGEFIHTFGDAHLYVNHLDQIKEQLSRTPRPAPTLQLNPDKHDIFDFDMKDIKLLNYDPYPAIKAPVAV

[4] = target: T1, Thymidylate synthase; assay: Inhibitory constant of thymidylate synthase was determined in human AML cells; format: cell-based

T1 sequence (P04818 whole entry): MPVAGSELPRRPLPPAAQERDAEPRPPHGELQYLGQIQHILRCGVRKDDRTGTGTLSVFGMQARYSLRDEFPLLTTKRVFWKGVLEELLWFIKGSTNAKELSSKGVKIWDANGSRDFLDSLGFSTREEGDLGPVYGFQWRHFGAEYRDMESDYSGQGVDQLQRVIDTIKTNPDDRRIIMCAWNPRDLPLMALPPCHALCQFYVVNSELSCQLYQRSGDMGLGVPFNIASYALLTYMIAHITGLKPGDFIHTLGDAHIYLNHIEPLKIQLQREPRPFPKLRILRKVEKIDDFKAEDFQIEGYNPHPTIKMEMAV

Row | SMILES | IC50 [1] [nM] | further results
1 | CN(Cc1ccc2nc(N)[nH]c(=O)c2n1)c1ccc(C(=O)N[C@@H](CCC(=O)O)C(=O)O)cc1 | 2500 | 
2 | Nc1nc(O)c2nc(CNc3ccc(C(=O)N[C@@H](CCC(=O)O)C(=O)O)cc3)ccc2n1 | 55000 | 
3 | C#CCN(Cc1ccc2nc(N)[nH]c(=O)c2n1)c1ccc(C(=O)N[C@@H](CCC(=O)O)C(=O)O)cc1 | 2400 | 
4 | C#CN(Cc1cnc2nc(N)nc(N)c2n1)c1ccc(C(=O)NC(CCC(=O)O)C(=O)O)cc1 (stereo unspecified) |  | IC50 [2]: 20 nM
5 | CN(Cc1ccc2nc(N)[nH]c(=O)c2c1)c1ccc(C(=O)N[C@@H](CCC(=O)O)C(=O)O)cc1 | 290 | 
6 | C#CCN(Cc1ccc2nc(N)nc(N)c2n1)c1ccc(C(=O)NC(CCC(=O)O)C(=O)O)cc1 (stereo unspecified) | 1260 | 
7 | C#CCN(Cc1cnc2nc(N)[nH]c(=O)c2n1)c1ccc(C(=O)N[C@@H](CCC(=O)O)C(=O)O)cc1 | 5500 | IC50 [3]: 3900 nM
8 | Nc1nc2ncc(CNc3ccc(C(=O)N[C@@H](CCC(=O)O)C(=O)O)cc3)nc2c(=O)[nH]1 [FOLIC ACID] | 290000 | Ki [4]: 40000 nM
9 | CN(Cc1cnc2nc(N)[nH]c(=O)c2n1)c1ccc(C(=O)N[C@@H](CCC(=O)O)C(=O)O)cc1 [METHOPTERINE] |  | Ki [4]: 1000 nM

Source: ChEMBL document CHEMBL1123717, “Folate analogues as inhibitors of thymidylate synthase” (J Med Chem, 1987)
